According to publication PMC11487390, “Design and Synthesis of 1,3-Diarylpyrazoles and Investigation of Their Cytotoxicity and Antiparasitic Profile” (International Journal of Molecular Sciences, 2024):
pEC50: −log10 of the molar value. Counter-ions that a name gives are not always drawn. Like-named read-outs stand apart in the source and are kept apart here.

Legend:
[1] = Cytotoxicity assay, MRC-5SV2 cells, resazurin, 3 days; format: cell-based; conditions: human, MRC-5SV2 human lung fibroblast cells, MRC-5 cells, highest concentration 64 µM
Experimental: (§1) The series of final products (13–69) was investigated in vitro on the human fetal lung fibroblast cell line MRC-5 (Table 1) to assess cytotoxicity toward normal (i.e., non-malignant) human cells. […] As explained earlier, these are important pathogens for humans or cattle (T. b. brucei) and a persistent need for new therapeutics exists for these parasites. As a part of the antiparasitic tests, cytotoxicity against primary mouse macrophages (PMMs) was also evaluated. These murine cells serve as host cells for parasites in the L. infantum assay. Therefore, the murine macrophage assay not only offers additional cytotoxicological insight but is also essential to interpreting the readout of the L. infantum assay.
(§2) The MRC-5SV2 human lung fibroblast cell line was cultured in MEM + Earle’s salts-medium, supplemented with 2 mM L-glutamine, 16.5 mM NaHCO3, and 5% inactivated fetal calf serum. For evaluating the antileishmanial activity, the L. infantum MHOM/MA(BE)/67 strain was used. This strain was maintained in a Golden hamster (Mesocricetus auratus). Amastigotes were collected from the spleen of an infected donor hamster using differential centrifugation. Primary peritoneal mouse macrophages were used as host cells and were collected 2 days after peritoneal stimulation with a 2% potato starch suspension. For the intracellular T. cruzi assays, the Tulahuen CL2 strain was used that expresses β-galactosidase. The strain was maintained in MRC-5SV2 cells in MEM medium. The T. b. brucei Squib 427 strain or T. b. rhodesiense STIB-900 strain was used for screening against the extracellular African trypanosomes. The strains were maintained in Hirumi’s Modified Iscove’s medium-9 (HMI-9), supplemented with 10% inactivated fetal calf serum. All cultures and assays were performed at 37 °C with 5% CO2.
(§3) Compound stock solutions were prepared in 100% DMSO at 20 mM. The compounds were serially pre-diluted by robotic plate production (4-fold) in DMSO followed by a further (intermediate) dilution in demineralized water to assure a final in-test DMSO concentration of <1%. Identical test plates containing 10 µL of the different concentrations of each compound were produced for the different assays. For the cytotoxicity assays, 5 concentrations per compound were tested (64–16–4–1–0.25 µM). For the parasitic assays, 10 concentrations per compound were tested, ranging from 64 µM to 0.2 nM.
Assays were performed in sterile 96-well microtiter plates, each well containing 10 µL of the watery compound dilutions together with 190 µL of MRC-5SV2 inoculum (1.5 × 10^5 cells/mL). Cell growth was compared to untreated control wells (100% cell growth) and medium-control wells (0% cell growth). After 3 days incubation, MRC-5 viability was assessed fluorimetrically after addition of 50 μL resazurin per well (final concentration of 10 µg mL^−1). After 4 h at 37 °C, fluorescence was measured (λex 550 nm, λem 590 nm). The results were expressed as % reduction in cell growth/viability compared to positive (100% growth–0% inhibition) and negative (0% growth–100% inhibition) control wells from which EC50 values (50% effective concentrations) were derived using an excel macro that calculates the interpolation of the concentrations corresponding to the flanking points, just above and just below 50% inhibition.

[2] = system: primary mouse macrophages (PMMs); test: Cytotoxicity against primary peritoneal mouse macrophages (PMM); format: cell-based; conditions: Macrophage
Experimental: as §1, §2
(§4) Primary peritoneal mouse macrophages (PMMs) were prepared in RPMI-1640 medium, supplemented with 2 mM L-glutamine, 16.5 mM NaHCO3, and 5% inactivated fetal calf serum. The macrophages are infected after 48 h with spleen-derived L. infantum amastigotes (3 × 10^4 PMM + 4.5 × 10^5 parasites/well). The compounds were added after 2 h of infection. After 5 days incubation, parasite burdens (mean number of amastigotes/macrophage) were assessed microscopically after staining with a 10% Giemsa solution and EC50 values were calculated.

[3] = system: T. b. brucei Squib 427 strain; test: T. b. brucei growth assay (resazurin, 3 days); format: cell-based, Trypanosoma brucei brucei; conditions: for pEC50: 3 days, read-out: T. b. bruc. (EC50)
Experimental: as §2, §3
(§5) Parasite suspensions (1.5 × 10^4 T. b. brucei/well or 4 × 10^3 T. b. rhodesiense/well) in HMI-9 medium were exposed in a total volume of 200 µL to 10 µL of the compound dilutions Parasite growth was assessed fluorimetrically after 3 days of incubation by the addition of 50 µL resazurin per well. After 6 h (T. b. rhodesiense) or 24 h (T. b. brucei) at 37 °C, fluorescence was measured (λex 550 nm, λem 590 nm), from which viability and EC50 values could be determined.

[4] = system: L. infantum MHOM/MA(BE)/67 strain; test: L. infantum intracellular amastigote assay in PMM (Giemsa, 5 days); format: cell-based, Leishmania infantum
Experimental: as §2, §3, §4

[5] = system: T. b. rhodesiense STIB-900 strain; test: T. b. rhodesiense growth assay (resazurin, 3 days); format: cell-based, Trypanosoma brucei rhodesiense; conditions: for pEC50: 3 days, read-out: T. b. rhod. (EC50)
Experimental: as §2, §3, §5

[6] = system: Trypanosoma cruzi Tulahuen CL2 strain; test: Intracellular T. cruzi assay in MRC-5 cells (β-galactosidase/CPRG, 7 days); format: cell-based; conditions: intracellular in MRC-5 cells
Experimental: as §2, §3
MRC-5 cells were infected in 96-well plates using a harvested T. cruzi inoculum (4 × 10^3 MRC-5 cells/well + 4 × 10^4 parasites/well) and exposed to 10 µL of the compound dilutions (200 µL/well total volume). Parasite growth determined after 7 days of incubation and compared to untreated infected controls following the addition of the substrate CPRG (chlorophenolred ß-D-galactopyranoside): 50 µL/well of a stock solution containing 15.2 mg CPRG + 250 µL Nonidet in 100 mL PBS. The absorbance was measured spectrophotometrically at 540 nm after 4 h incubation at 37 °C and EC50 values were calculated.

[7] = Leishmania infantum, 120 h, amastigotes in PMM, 5 days; read-out: L. inf. (EC50)
[8] = Trypanosoma brucei, RHODESIENSE, 72 h
[9] = Trypanosoma cruzi, TULAHUEN, MRC5, 168 h
[10] = Leishmania infantum, 120 h, read-out: L. inf. (EC50, µM), amastigotes in PMM, 5 days

SMILES | EC50 at 3 days [1] [µM] | pEC50 [2] | pEC50 ([3]; Trypanosoma brucei, 72 h) | pEC50 [4, 7] | pEC50 [5, 8] | pEC50 [6, 9] | pEC50 [3] | pEC50 ([4]; amastigotes in PMM, 5 days; read-out: L. inf. (EC50)) | pEC50 [5] | selectivity index ([5]; T. b. rhodesiense versus cytotoxicity) | EC50 ([3]; Trypanosoma brucei, 72 h, read-out: T. b. bruc. (EC50, µM), 3 days) [µM] | EC50 [4, 10] [µM] | EC50 ([5]; Trypanosoma brucei, RHODESIENSE, 72 h, read-out: T. b. rhod. (EC50, µM), 3 days) [µM] | pEC50 ([4]; read-out: L. inf. (EC50); amastigotes in PMM, 5 days) | pEC50 [6]
O=C(NCc1ccccc1)c1cn(-c2ccccc2)nc1-c1ccc2c(c1)OCCO2 [Compound 32, N-benzyl-3-(2,3-dihydrobenzo[b][1,4]dioxin-6-yl)-1-phenyl-1H-pyrazole-4-carboxamide] | > 64 | < 4.19 | 4.62 | 4.90 | 5.31 | 5.17 |  |  |  |  |  |  |  |  | 
O=C(Nc1ccc(F)cc1)c1cn(-c2ccccc2)nc1-c1ccc2c(c1)OCCO2 [Compound 31, 3-(2,3-dihydrobenzo[b][1,4]dioxin-6-yl)-N-(4-fluorophenyl)-1-phenyl-1H-pyrazole-4-carboxamide] | > 64 | < 4.19 | 5.17 | < 4.19 | 5.51 | 5.13 |  |  |  |  |  |  |  |  | 
CNC(=O)c1ccc(NCc2cn(-c3ccccc3)nc2-c2ccc3c(c2)OCCO3)cn1 [Compound 18, 5-(((3-(2,3-dihydrobenzo[b][1,4]dioxin-6-yl)-1-phenyl-1H-pyrazol-4-yl)methyl)amino)-N-methylpicolinamide] | 49.9 | 4.49 | < 4.19 | 5.04 | < 4.19 | < 4.19 |  |  |  |  |  |  |  |  | 
Fc1ccc(NCc2cn(-c3ccccc3)nc2-c2ccc3c(c2)OCCO3)cc1 [Compound 14, N-((3-(2,3-dihydrobenzo[b][1,4]dioxin-6-yl)-1-phenyl-1H-pyrazol-4-yl)methyl)-4-fluoroaniline] | > 64 | < 4.19 | > 5.00 | > 5.00 | > 5.00 |  | 5.09 | 5.16 | 5.20 |  |  |  |  |  | 
CNC(=O)c1cc(Oc2ccc(NC(=O)c3cn(-c4ccccc4)nc3-c3ccc4c(c3)OCCO4)cc2)ccn1 [Compound 38, 4-(4-(3-(2,3-dihydrobenzo[b][1,4]dioxin-6-yl)-1-phenyl-1H-pyrazole-4-carboxamido)phenoxy)-N-methylpicolinamide] | 6.35 | < 4.19 | 5.10 | < 4.19 | 5.76 | < 4.19 |  |  |  |  |  |  |  |  | 
O=C(c1cn(-c2ccccc2)nc1-c1ccc2c(c1)OCCO2)N1CCOCC1 [Compound 40, (3-(2,3-dihydrobenzo[b][1,4]dioxin-6-yl)-1-phenyl-1H-pyrazol-4-yl)(morpholino)methanone] | > 64 | < 4.19 | < 4.19 | < 4.19 | < 4.19 | < 4.19 |  |  |  |  |  |  |  |  | 
O=C(c1cn(-c2ccccc2)nc1-c1ccc2c(c1)OCCO2)N1CCCC1 [Compound 39, (3-(2,3-dihydrobenzo[b][1,4]dioxin-6-yl)-1-phenyl-1H-pyrazol-4-yl)(pyrrolidin-1-yl)methanone] | 23.2 | < 4.19 | < 4.19 | 4.42 | 4.43 | 5.06 |  |  |  |  |  |  |  |  | 
O=C(NCCc1ccncc1)c1cn(-c2ccccc2)nc1-c1ccc2c(c1)OCCO2 [Compound 35, 3-(2,3-dihydrobenzo[b][1,4]dioxin-6-yl)-1-phenyl-N-(2-(pyridin-4-yl)ethyl)-1H-pyrazole-4-carboxamide] | > 64 | < 4.19 | 4.64 | < 4.19 | 5.89 | 5.36 |  |  |  |  |  |  |  |  | 
O=C(NCCc1ccccn1)c1cn(-c2ccccc2)nc1-c1ccc2c(c1)OCCO2 [Compound 37, 3-(2,3-dihydrobenzo[b][1,4]dioxin-6-yl)-1-phenyl-N-(2-(pyridin-2-yl)ethyl)-1H-pyrazole-4-carboxamide] | 32 | < 4.19 | 4.70 | < 4.19 | 5.53 | 4.88 |  |  |  |  |  |  |  |  | 
CNC(=O)c1cc(Oc2ccc(NCc3cn(-c4ccccc4)nc3-c3ccc4c(c3)OCCO4)cc2)ccn1 [Compound 22, 4-(4-(((3-(2,3-dihydrobenzo[b][1,4]dioxin-6-yl)-1-phenyl-1H-pyrazol-4-yl)methyl)amino)phenoxy)-N-methylpicolinamide] | > 64 | < 4.19 | 5.65 | < 4.19 | 6.13 | < 4.19 |  |  |  | 86 |  |  |  |  | 
c1ccc(NCc2cn(-c3ccccc3)nc2-c2ccc3c(c2)OCCO3)cc1 [Compound 13, N-((3-(2,3-dihydrobenzo[b][1,4]dioxin-6-yl)-1-phenyl-1H-pyrazol-4-yl)methyl)aniline] | > 64 | < 4.19 | 4.50 | 4.97 | 5.14 | 5.65 |  |  |  |  |  |  |  |  | 
O=C(NCCc1cccnc1)c1cn(-c2ccccc2)nc1-c1ccc2c(c1)OCCO2 [Compound 36, 3-(2,3-dihydrobenzo[b][1,4]dioxin-6-yl)-1-phenyl-N-(2-(pyridin-3-yl)ethyl)-1H-pyrazole-4-carboxamide] | 45 | < 4.19 | 4.71 | 4.34 | 5.40 | 5.34 |  |  |  |  |  |  |  |  | 
c1ccc(-n2cc(CNCCN3CCOCC3)c(-c3ccc4c(c3)OCCO4)n2)cc1 [Compound 28, N-((3-(2,3-dihydrobenzo[b][1,4]dioxin-6-yl)-1-phenyl-1H-pyrazol-4-yl)methyl)-2-morpholinoethan-1-amine dihydrochloride] | 29.4 | 4.49 |  |  |  | 4.52 |  |  |  |  | 7.08 | 32.5 | 6.27 |  | 
c1ccc(-n2cc(CNCCc3ccccn3)c(-c3ccc4c(c3)OCCO4)n2)cc1 [Compound 21, N-((3-(2,3-dihydrobenzo[b][1,4]dioxin-6-yl)-1-phenyl-1H-pyrazol-4-yl)methyl)-2-(pyridin-2-yl)ethan-1-amine hydrochloride] | 29.1 | 4.49 |  |  |  | > 5.00 |  |  |  |  |  | < 10 |  | 5.30 | 5.14
